In paper PMC9407119, “Improving the Specific Activity and Thermostability of Psychrophilic Xylosidase AX543 by Comparative Mutagenesis” (Foods, 2022):

How the values were obtained:
Assay in all cases: pNP release at […] nm, Lineweaver-Burk
Settings in all cases: McIlvaine buffer, pH 6.0, 20 °C, 5 min, pNPX 0.1 to 2 mM
R3 = system: T1, R3; format: biochemical, Acremonium sp. WCQ6A; Humicola insolens
T1 construct: gene AX543; pET-28a(+), E. coli BL21(DE3), purified

R8 = system: T2, R8; format: biochemical, Humicola insolens; Acremonium sp. WCQ6A
T2 construct: gene Xyl43A; Xyl43A with segment A3 (D161-K231) of AX543; pET-28a(+), E. coli BL21(DE3), purified

R7 = system: T3, R7; format: biochemical, Humicola insolens; Acremonium sp. WCQ6A
T3 construct: gene Xyl43A; Xyl43A with segment A4 (H232-D324) of AX543 at the C-terminus; pET-28a(+), E. coli BL21(DE3), purified

R10 = system: T4, R10; format: biochemical, Humicola insolens; Acremonium sp. WCQ6A
T4 construct: gene AX543; Xyl43A with segment A1 (M1-K67) of AX543 at the N-terminus; pET-28a(+), E. coli BL21(DE3), purified

R6 = system: T5, R6; format: biochemical, Humicola insolens; Acremonium sp. WCQ6A
T5 construct: gene AX543; pET-28a(+), E. coli BL21(DE3), purified

R1 = system: T6, R1; format: biochemical, Acremonium sp. WCQ6A; Humicola insolens
T6 construct: gene AX543; pET-28a(+), E. coli BL21(DE3), purified

R5 = system: T7, R5; format: biochemical, Acremonium sp. WCQ6A; Humicola insolens
T7 construct: gene AX543; pET-28a(+), E. coli BL21(DE3), purified

R4 = system: T8, R4; format: biochemical, Acremonium sp. WCQ6A; Humicola insolens
T8 construct: gene AX543; pET-28a(+), E. coli BL21(DE3), purified

R9 = system: T9, R9; format: biochemical, Humicola insolens; Acremonium sp. WCQ6A
T9 construct: gene Xyl43A; Xyl43A with segment A2 (T68-G160) of AX543; pET-28a(+), E. coli BL21(DE3), purified

R2 = system: T10, R2; format: biochemical, Acremonium sp. WCQ6A; Humicola insolens
T10 construct: gene AX543; pET-28a(+), E. coli BL21(DE3), purified

SMILES: O=[N+]([O-])c1ccc(O[C@@H]2OC[C@@H](O)[C@H](O)[C@H]2O)cc1 [4-nitrophenyl-β-D-xylopyranoside]
- Km (R3): 1000 ± 25 µM
- Km (R8): 1300 ± 192 µM
- Km (R7): 1630 ± 60 µM
- Km (R10): 1870 ± 44 µM
- Km (R6): 1190 ± 34 µM
- Km (R1): 1250 ± 48 µM
- Km (R5): 1210 ± 56 µM
- Km (R4): 1840 ± 106 µM
- Km (R9): 1320 ± 59 µM
- Km (R2): 1170 ± 33 µM
